Values after ≈ are worked out from the molar mass of the structure shown. Values joined by “and” are separate entries in the source; they are usually repeats but may differ in a detail not shown here. Identical values can stand only once. Like-named read-outs stand apart in the source and are kept apart here.
Columns and labels:
[1] = tested on: M. tuberculosis H37Rv CNCTC My 331/88; experiment: Antimycobacterial in vitro screening, microdilution broth panel method, Alamar Blue; type: cell-based, Mycobacterium tuberculosis; details: 37 °C; for MIC: Mycobacterium tuberculosis, H37RV, 336 h, pH 6, Sula's medium pH 6.0, 14 days; for MIC M.tuberculosis H37Rv: Sula's medium pH 6.0, 14 days
[2] = tested on: photosynthetic electron transport (PET) in spinach chloroplasts; experiment: Inhibition of photosynthetic electron transport (PET) in spinach chloroplasts, DCPIP photoreduction; type: biochemical, Spinacia oleracea L.; details: for IC50 / IC50 PET inhibition in spinach chloroplasts: chlorophyll 30 mg/L, phosphate buffer pH 7.2
Method: Chloroplasts were prepared from spinach (Spinacia oleracea L.) according to Masarovicova and Kralova. The inhibition of photosynthetic electron transport (PET) in spinach chloroplasts was determined spectrophotometrically (Genesys 6, Thermo Scientific, Madison, WI, USA) using an artificial electron acceptor 2,6-dichlorophenol-indophenol (DCPIP) according to Kralova et al. and the rate of photosynthetic electron transport (PET) was monitored as a photo-reduction of DCPIP. The measurements were carried out in a phosphate buffer (0.02 mol/L, pH 7.2) containing sucrose (0.4 mol/L), MgCl2 (0.005 mol/L) and NaCl (0.015 mol/L). The chlorophyll content was 30 mg/L in these experiments and the samples were irradiated (~100 W/m^2) from a 10 cm distance with halogen lamp (250 W) using a 4 cm water filter to prevent warming of the samples (suspension temperature […]). The studied compounds were dissolved in DMSO due to their limited water solubility. […] The inhibitory efficiency of the studied compounds was expressed as the IC50 values, i.e., molar concentration of the compounds causing 50% decrease in the oxygen evolution relative to the untreated control.

[3] = Lipophilicity log k by RP-HPLC; details: for log k: RP-HPLC capacity factor, C18, MeOH 70%/H2O 30%, 30 °C; for π: π = log k(substituted) – log k(unsubstituted)
Description: Experimental lipophilicity parameter log k was ascertained using an Agilent Technologies 1200 SL HPLC system with a SL G1315C Diode-Array Detector, ZORBAX XDB-C18 5 μm, 4 × 4 mm, Part No. 7995118-504 chromatographic pre-column and ZORBAX Eclipse XDB-C18 5 μm, 4.6 × 250 mm, Part No. 7995118-585 column (Agilent Technologies Inc., Colorado Springs, CO, USA). The separation process was controlled by Agilent ChemStation, version B.04.02 extended by spectral module (Agilent Technologies Inc.). A solution of MeOH (HPLC grade, 70%) and H2O (HPLC-Milli-Q Grade, 30%) was used as mobile phase. The total flow of the column was 1.0 mL/min, injection 20 μL, column temperature 30 °C. Detection wavelength λ= 210 nm and monitor wavelength λ= 270 nm were chosen for this measurement. The KI methanol solution was used for the dead time (TD) determination. Retention times (TR) of synthesized compounds were measured in minutes. The capacity factors k were calculated using Microsoft Excel according to formula k = (TR − TD)/TD, where TR is the retention time of the solute and TD denotes the dead time obtained via an unretained analyte. Log k, calculated from the capacity factor k, is used as the lipophilicity index converted to log P scale.

[4] = tested on: Trichophyton mentagrophytes 445; experiment: Antifungal in vitro screening, microdilution broth method; type: cell-based; details: for MIC: Trichophyton mentagrophytes, 445, RPMI 1640, pH 7.0, 35 °C, read-out: MIC against Trichophyton mentagrophytes; for activity against Trichophyton mentagrophytes: result in words
Method: Antifungal evaluation was also accomplished with microdilution broth method. On the contrary, there was used RPMI 1640 broth with glutamine as medium and conditions were humid and dark atmosphere, pH 7.0 (buffered with 3-morpholinopropane-1-sulfonic acid) and 35 °C. Eight fungal strains were used (Candida albicans ATCC 44859, Candida tropicalis 156, Candida krusei E28, Candida glabrata 20/I, Trichosporon asahii 1188, Aspergillus fumigatus 231, Absidia corymbifera 272, Trichophyton mentagrophytes 445) together with 4 antimycotic standards amphotericin B, voriconazole, nystatin and fluconazole.

[5] = tested on: M. avium CNCTC My 152/73; experiment: Antimycobacterial in vitro screening, non-tuberculosis strain M. avium; type: cell-based, Mycobacterium avium; details: result in words
[6] = tested on: M. kansasii CNCTC My 235/80; experiment: Antimycobacterial in vitro screening, non-tuberculosis strain M. kansasii; type: cell-based, Mycobacterium kansasii; details: result in words
[7] = tested on: photosynthetic electron transport (PET) in spinach chloroplasts; design: method as in earlier work; details: DCMU standard; read-out: IC50 PET inhibition in spinach chloroplasts (standard); cited from earlier work

| Structure (SMILES) | MIC [1] [µg/mL] | MIC M.tuberculosis H37Rv [1] [µg/mL] | IC50 [2] [µM] | log k [3] | π [3] | PET inhibitory activity relative to DCMU (times lower) ([2]; ratio of IC50 to standard DCMU) [times] | IC50 PET inhibition in spinach chloroplasts [2] | MIC [4] [µM] | activity against Trichophyton mentagrophytes [4] | activity against M. avium 152 [5] | activity against M. kansasii [6] | IC50 [7] |
| --- | --- | --- | --- | --- | --- | --- | --- | --- | --- | --- | --- | --- |
| Cc1ccccc1CNc1nc(C#N)c(C#N)nc1C [Compound 1, 5-Methyl-6-[(2-methylbenzyl)amino]pyrazine-2,3-dicarbonitrile] | > 100 | >100 | 114 | 0.4668 | 0.1674 | – | – | – | – | – | – | – |
| Cc1nc(C#N)c(C#N)nc1NCc1cccc(C(F)(F)F)c1 [Compound 2, 5-Methyl-6-{[3-(trifluoromethyl)benzyl]amino}pyrazine-2,3-dicarbonitrile] | 12.5 (≈ 39.4 µM) | – | 37.7 | 0.5369 | 0.2375 | – | – | – | – | – | – | – |
| Cc1nc(C#N)c(C#N)nc1NCc1ccc(Cl)c(Cl)c1 [Compound 3, 5-[(3,4-Dichlorobenzyl)amino]-6-methylpyrazine-2,3-dicarbonitrile] | 6.25 (≈ 19.6 µM) | – | 16.4 | 0.7538 | 0.4544 | 8.6 | – | – | – | – | – | – |
| Cc1ccc(CNc2nc(C#N)c(C#N)nc2C)cc1 [Compound 4, 5-Methyl-6-[(4-methylbenzyl)amino]pyrazine-2,3-dicarbonitrile] | 25 (≈ 94.9 µM) | – | 105 | 0.5157 | 0.2163 | – | – | – | – | – | – | – |
| COc1ccc(CNc2nc(C#N)c(C#N)nc2C)cc1 [Compound 5, 5-[(4-Methoxybenzyl)amino]-6-methylpyrazine-2,3-dicarbonitrile] | > 100 | >100 | 465 | 0.2820 | −0.0174 | – | – | – | – | – | – | – |
| Cc1nc(C#N)c(C#N)nc1NCc1ccccc1 [Compound 6, 5-(Benzylamino)-6-methylpyrazine-2,3-dicarbonitrile] | 25 (≈ 100 µM) | – | – | 0.2994 | 0 | – | inactive | – | – | – | – | – |
| Cc1nc(C#N)c(C#N)nc1NCc1ccc(N)cc1 [Compound 7, 5-[(4-Aminobenzyl)amino]-6-methylpyrazine-2,3-dicarbonitrile] | 25 (≈ 94.6 µM) | – | – | −0.2014 | −0.5008 | – | inactive | 500 (≈ 132 µg/mL) | insignificant activity | – | – | – |
| Cc1nc(C#N)c(C#N)nc1NCc1cccc(Cl)c1 [Compound 8, 5-[(3-Chlorobenzyl)amino]-6-methylpyrazine-2,3-dicarbonitrile] | 12.5 (≈ 44.1 µM) | – | 57.4 | 0.5172 | 0.2178 | – | – | – | – | – | – | – |
| Cc1nc(C#N)c(C#N)nc1NCc1ccccc1Cl [Compound 9, 5-[(2-Chlorobenzyl)amino]-6-methylpyrazine-2,3-dicarbonitrile] | 6.25 (≈ 22 µM) | – | 79 | 0.4663 | 0.1669 | – | – | – | – | – | – | – |
| Cc1nc(C#N)c(C#N)nc1NCc1ccccc1F [Compound 10, 5-[(2-Fluorobenzyl)amino]-6-methylpyrazine-2,3-dicarbonitrile] | 12.5 (≈ 46.8 µM) | – | 196 | 0.3042 | 0.0048 | – | – | 500 (≈ 134 µg/mL) | insignificant activity | – | – | – |
| Cc1nc(C#N)c(C#N)nc1NCc1ccc(C(F)(F)F)cc1 [Compound 11, 5-Methyl-6-{[4-(trifluoromethyl)benzyl]amino}pyrazine-2,3-dicarbonitrile] | 6.25 (≈ 19.7 µM) | – | 39.6 | 0.5626 | 0.2632 | – | – | – | – | active | active | – |
| Cc1nc(C#N)c(C#N)nc1NCc1ccccc1C(F)(F)F [Compound 12, 5-Methyl-6-{[2-(trifluoromethyl)benzyl]amino}pyrazine-2,3-dicarbonitrile] | 12.5 (≈ 39.4 µM) | – | 71.6 | 0.4865 | 0.1871 | – | – | 125 (≈ 39.7 µg/mL) | – | active | active | – |
| COc1ccc(CNc2nc(C#N)c(C#N)nc2C)c(OC)c1 [Compound 13, 5-[(2,4-Dimethoxybenzyl)amino]-6-methylpyrazine-2,3-dicarbonitrile] | 25 (≈ 80.8 µM) | – | – | 0.3699 | 0.0705 | – | inactive | – | – | – | – | – |
| Cc1nc(C#N)c(C#N)nc1NCc1cccc([N+](=O)[O-])c1 [Compound 14, 5-Methyl-6-[(3-nitrobenzyl)amino]pyrazine-2,3-dicarbonitrile] | 12.5 (≈ 42.5 µM) | – | 487 | 0.1808 | −0.1186 | – | – | – | – | – | – | – |
| Cc1nc(C#N)c(C#N)nc1NCc1ccc(Cl)cc1 [Compound 15, 5-[(4-Chlorobenzyl)amino]-6-methylpyrazine-2,3-dicarbonitrile] | 12.5 (≈ 44.1 µM) | – | 86.5 | 0.5384 | 0.2390 | – | – | – | insignificant activity | – | – | – |
| CN(C)C(=O)Nc1ccc(Cl)c(Cl)c1 [DCMU, 3-(3,4-dichlorophenyl)-1,1-dimethylurea] | – | – | – | – | – | – | – | – | – | – | – | ~1.9 µM and 1.9 µM |
| NNC(=O)c1ccncc1 [INH, isoniazid, reference compound] | 1.56 (≈ 11.4 µM) | – | – | – | – | – | – | – | – | – | – | – |
| NC(=O)c1cnccn1 [PZA, pyrazinamide, reference compound] | 12.5 (≈ 102 µM) | – | – | – | – | – | – | – | – | – | – | – |

From publication PMC6270751, “N-Substituted 5-Amino-6-methylpyrazine-2,3-dicarbonitriles: Microwave-Assisted Synthesis and Biological Properties” (Molecules, 2014)
